From patent US8877759B2, “Aminopyrazines as ATR kinase inhibitors” (Vertex Pharnaceuticals Incorporated, priority 2011, dated 2014) come the findings set out here.

This assay addresses T1, full-length ATR (Homo sapiens, UniProt Q13535).
T1 construct: Assays were carried out at 25° C. in the presence of 5 nM full-length ATR
Put plainly: ATR Inhibition Assay (radioactive-phosphate incorporation). In kind it is biochemical. Particulars: for ATR Ki: Ki(app), 5 nM full-length ATR, 10 μM [γ-33P]ATP, 800 μM target peptide, 25° C. Here is the method: Compounds were screened for their ability to inhibit ATR kinase using a radioactive-phosphate incorporation assay. Assays were carried out in a mixture of 50 mM Tris/HCl (pH 7.5), 10 mM MgCl2 and 1 mM DTT.
Assays were carried out at 25° C. in the presence of 5 nM full-length ATR. An assay stock buffer solution was prepared containing all of the reagents listed above, with the exception of ATP and the test compound of interest. […] The plate was pre-incubated for 10 minutes at 25° C. and the reaction initiated by addition of 15 μL [γ-33P]ATP (final concentration 10 μM).
The reaction was stopped after […] by the addition of 30 μL 0.1M phosphoric acid containing 2 mM ATP. A multiscreen phosphocellulose filter 96-well plate (Millipore, Cat no. MAPHN0B50) was pretreated with 100 μL 0.2M phosphoric acid prior to the addition of 45 μL of the stopped assay mixture. The plate was washed with 5×200 μL 0.2M phosphoric acid.
After removing mean background values for all of the data points, Ki(app) data were calculated from non-linear regression analysis of the initial rate data using the Prism software package (GraphPad Prism version 3.0cx for Macintosh, GraphPad Software, San Diego Calif., USA).

SMILES strings stand for the structures.

T1 sequence (Q13535 whole entry): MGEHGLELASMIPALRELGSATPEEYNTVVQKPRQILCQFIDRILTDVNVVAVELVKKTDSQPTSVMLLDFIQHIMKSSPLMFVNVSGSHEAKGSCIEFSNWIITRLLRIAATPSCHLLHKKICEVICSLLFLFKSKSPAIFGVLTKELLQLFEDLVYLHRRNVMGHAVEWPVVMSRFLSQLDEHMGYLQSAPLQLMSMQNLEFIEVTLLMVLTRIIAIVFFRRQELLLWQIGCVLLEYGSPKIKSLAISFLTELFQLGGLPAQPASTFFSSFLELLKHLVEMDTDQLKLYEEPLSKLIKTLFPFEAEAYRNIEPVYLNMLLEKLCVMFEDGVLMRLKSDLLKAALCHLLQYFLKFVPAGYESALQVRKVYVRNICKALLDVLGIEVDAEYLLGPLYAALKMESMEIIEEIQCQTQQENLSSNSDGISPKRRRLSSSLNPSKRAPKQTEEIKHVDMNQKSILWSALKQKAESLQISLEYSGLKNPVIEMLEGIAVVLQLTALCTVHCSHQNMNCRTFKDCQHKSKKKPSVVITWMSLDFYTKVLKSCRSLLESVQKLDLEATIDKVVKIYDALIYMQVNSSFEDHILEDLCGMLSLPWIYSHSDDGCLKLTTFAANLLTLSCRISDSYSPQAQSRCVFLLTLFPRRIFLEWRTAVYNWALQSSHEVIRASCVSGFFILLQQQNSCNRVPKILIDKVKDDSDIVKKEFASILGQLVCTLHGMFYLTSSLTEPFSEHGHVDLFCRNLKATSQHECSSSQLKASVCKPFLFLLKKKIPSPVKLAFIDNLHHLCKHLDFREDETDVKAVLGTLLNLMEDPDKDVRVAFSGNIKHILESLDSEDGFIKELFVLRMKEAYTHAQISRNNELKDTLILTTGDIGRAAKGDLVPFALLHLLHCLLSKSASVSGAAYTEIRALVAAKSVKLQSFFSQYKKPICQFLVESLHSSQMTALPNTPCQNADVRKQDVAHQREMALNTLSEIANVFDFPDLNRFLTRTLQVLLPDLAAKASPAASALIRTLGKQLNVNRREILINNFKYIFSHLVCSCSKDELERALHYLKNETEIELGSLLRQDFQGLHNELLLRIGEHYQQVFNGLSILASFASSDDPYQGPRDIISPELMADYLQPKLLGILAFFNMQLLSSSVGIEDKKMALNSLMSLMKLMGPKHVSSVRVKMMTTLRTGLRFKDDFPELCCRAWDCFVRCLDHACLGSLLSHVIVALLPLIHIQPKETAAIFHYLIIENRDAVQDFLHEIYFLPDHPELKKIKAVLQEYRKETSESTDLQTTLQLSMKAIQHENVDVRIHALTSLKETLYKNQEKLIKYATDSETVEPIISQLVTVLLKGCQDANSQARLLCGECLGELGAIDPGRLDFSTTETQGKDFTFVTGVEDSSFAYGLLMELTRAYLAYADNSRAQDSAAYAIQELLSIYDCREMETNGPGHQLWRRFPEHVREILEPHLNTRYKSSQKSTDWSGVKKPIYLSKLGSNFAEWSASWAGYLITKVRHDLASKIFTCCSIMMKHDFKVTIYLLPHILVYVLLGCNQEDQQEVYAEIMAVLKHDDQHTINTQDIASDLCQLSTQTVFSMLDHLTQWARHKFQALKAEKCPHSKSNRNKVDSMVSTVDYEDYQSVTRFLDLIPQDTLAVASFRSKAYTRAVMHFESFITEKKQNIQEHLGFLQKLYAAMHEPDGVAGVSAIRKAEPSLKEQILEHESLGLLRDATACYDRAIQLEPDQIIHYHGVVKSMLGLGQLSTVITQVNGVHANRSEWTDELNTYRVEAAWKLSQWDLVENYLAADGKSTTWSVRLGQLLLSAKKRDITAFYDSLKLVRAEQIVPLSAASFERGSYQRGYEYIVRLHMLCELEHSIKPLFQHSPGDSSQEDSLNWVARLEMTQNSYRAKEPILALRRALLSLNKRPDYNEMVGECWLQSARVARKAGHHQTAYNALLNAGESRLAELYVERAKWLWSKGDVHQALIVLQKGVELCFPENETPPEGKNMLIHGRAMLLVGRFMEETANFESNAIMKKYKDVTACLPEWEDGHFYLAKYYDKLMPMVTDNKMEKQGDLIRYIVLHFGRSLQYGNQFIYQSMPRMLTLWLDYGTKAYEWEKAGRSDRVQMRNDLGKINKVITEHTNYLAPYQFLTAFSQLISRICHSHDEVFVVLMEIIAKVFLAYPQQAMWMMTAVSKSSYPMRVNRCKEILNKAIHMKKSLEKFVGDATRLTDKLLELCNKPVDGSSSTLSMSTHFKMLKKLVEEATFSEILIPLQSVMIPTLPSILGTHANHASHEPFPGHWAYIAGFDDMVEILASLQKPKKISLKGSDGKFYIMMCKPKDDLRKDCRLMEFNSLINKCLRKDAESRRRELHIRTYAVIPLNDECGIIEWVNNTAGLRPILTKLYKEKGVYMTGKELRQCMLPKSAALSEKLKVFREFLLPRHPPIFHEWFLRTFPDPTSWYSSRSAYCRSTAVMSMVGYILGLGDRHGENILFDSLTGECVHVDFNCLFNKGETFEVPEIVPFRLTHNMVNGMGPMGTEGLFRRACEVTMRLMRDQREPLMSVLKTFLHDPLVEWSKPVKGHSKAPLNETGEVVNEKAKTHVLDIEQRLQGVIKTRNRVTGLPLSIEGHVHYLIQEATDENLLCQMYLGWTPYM

On to `CC(C)(C#N)c1cc(-c2cnc(N)c(-c3nnc(-c4ccc(OCCN)cc4)o3)n2)ccn1` [Compound I-112], for which the Ki (usually the dissociation constant of the complex between target and ligand, obtained from inhibition or displacement) is less than 1 nM.
Same read-out and setting: then `CC(C)(C#N)c1cc(-c2cnc(N)c(-c3nnc(-c4ccc(CNC5CCOCC5)cc4)o3)n2)ccn1` [Compound I-126], with less than 1 nM; and `CN(C)C1CN(c2ccc(-c3nnc(-c4nc(-c5ccnc(C(C)(C)C#N)c5)cnc4N)o3)cc2)C1` [Compound I-131], with less than 1 nM.
For the compound `CN(C)C(=O)C(C)(C)c1cc(-c2cnc(N)c(-c3cc(-c4ccccc4)no3)n2)ccn1` [Compound I-39, 2-[4-[5-amino-6-(3-phenylisoxazol-5-yl)pyrazin-2-yl]-2-pyridyl]-N,N,2-trimethyl-propanamide], the “ATR Ki” value is “+++ (Compounds with a Ki value >5 nM but ≦1 nM are marked with “+++.”)”.
As for `COC[C@@H](N)c1ccc(-c2nnc(-c3nc(-c4ccnc(C(C)(C)C#N)c4)cnc3N)o2)cc1` [Compound I-87], the Ki was less than 1 nM.
Still for that read-out and setting: then `N#CCc1cc(-c2cnc(N)c(-c3cc(-c4ccc(CNC5CCOCC5)cc4)no3)n2)ccn1` [Compound I-136], with less than 1 nM; and `CC(C#N)c1cc(-c2cnc(N)c(-c3cc(-c4ccccc4)no3)n2)ccn1` (centres unmarked) [Compound I-50, 2-[4-[5-amino-6-(3-phenylisoxazol-5-yl)pyrazin-2-yl]-2-pyridyl]propanenitrile], with less than 1 nM.
As for `CCOC(=O)C(C)(C)c1cc(-c2cnc(N)c(-c3cc(-c4ccccc4)no3)n2)ccn1` [Compound I-115], the “ATR Ki” value is “+++ (Compounds with a Ki value >5 nM but ≦1 nM are marked with “+++.”)”.
On the same count and under the same terms, then `CC(C)(C#N)c1cc(-c2cnc(N)c(-c3nnc(-c4ccc(C5CNC5)cc4)o3)n2)ccn1` [Compound I-80], with “+++ (Compounds with a Ki value >5 nM but ≦1 nM are marked with “+++.”)”.
For the compound `CNCCN(C)c1ccc(-c2nnc(-c3nc(-c4ccnc(C(C)(C)C#N)c4)cnc3N)o2)cc1` [Compound I-78], the Ki is less than 1 nM.
Still for that read-out and setting: then `CC(C)(C#N)c1cc(-c2cnc(N)c(-c3nnc(-c4ccc(N5CCCC(N)C5)cc4)o3)n2)ccn1` (centres unmarked) [Compound I-61], with less than 1 nM; and `CC(C)(C#N)c1cc(-c2cnc(N)c(-c3nnc(-c4cccc(N5CC[C@H](N)C5)c4)o3)n2)ccn1` [Compound I-90], with less than 1 nM.
Same read-out and setting: then `CCC(C#N)(CC)c1cc(-c2cnc(N)c(-c3cc(-c4ccc(CNC)cc4)no3)n2)ccn1` [Compound I-2, 2-[4-[5-amino-6-[3-[4-(methylaminomethyl)phenyl]isoxazol-5-yl]pyrazin-2-yl]-2-pyridyl]-2-ethyl-butanenitrile], with less than 1 nM.
For the compound `CC(C)(C#N)c1cc(-c2cnc(N)c(-c3nnc(-c4ccc(N5CCC[C@H](N)C5)cc4)o3)n2)ccn1` [Compound I-64], the “ATR Ki” value is “+++ (Compounds with a Ki value >5 nM but ≦1 nM are marked with “+++.”)”.
`CC(C)(C(=O)NCCN)c1cc(-c2cnc(N)c(-c3cc(-c4ccccc4)no3)n2)ccn1` [Compound I-63]: the inhibition constant (Ki) is less than 1 nM.
On the same count and under the same terms, as for `C[C@H](N)c1ccc(-c2nnc(-c3nc(-c4ccnc(C(C)(C)C#N)c4)cnc3N)o2)cc1` [Compound I-44, 2-[4-[5-amino-6-[5-[4-[(1S)-1-aminoethyl]phenyl]-1,3,4-oxadiazol-2-yl]pyrazin-2-yl]-2-pyridyl]-2-methyl-propanenitrile], the figure is less than 1 nM.
Still for that read-out and setting: then `CC(C)(C#N)c1cc(-c2cnc(N)c(-c3cc(-c4ccc(CN[C@H]5CCOC5)cc4)no3)n2)ccn1` [Compound I-97], with less than 1 nM.
Same read-out and setting: as for `CN(C)CCNc1ccc(-c2nnc(-c3nc(-c4ccnc(C(C)(C)C#N)c4)cnc3N)o2)c(F)c1` [Compound I-103], the figure is 20 to 100 nM; as for `CC(C)(C#N)c1cc(-c2cnc(N)c(-c3nnc(-c4cccc(N5CC(N)C5)c4)o3)n2)ccn1` [Compound I-110], less than 1 nM.
Turning to `CC(C)(C#N)c1cc(-c2cnc(N)c(-c3nnc(-c4ccc5c(c4)CNC5)o3)n2)ccn1` [Compound I-81], the “ATR Ki” value was “+++ (Compounds with a Ki value >5 nM but ≦1 nM are marked with “+++.”)”.
For the compound `CC(C)(C(=O)NCCCN)c1cc(-c2cnc(N)c(-c3cc(-c4ccccc4)no3)n2)ccn1` [Compound I-40, 2-[4-[5-amino-6-(3-phenylisoxazol-5-yl)pyrazin-2-yl]-2-pyridyl]-N-(3-aminopropyl)-2-methyl-propanamide], the “ATR Ki” value is on record as “+++ (Compounds with a Ki value >5 nM but ≦1 nM are marked with “+++.”)”.
In the case of `CC(C)(C#N)c1cc(-c2cnc(N)c(-c3nnc(-c4ccc(N5CCNCC5)cc4)o3)n2)ccn1` [Compound I-73], the Ki was less than 1 nM.
Take `CNCc1ccc(-c2nnc(-c3nc(-c4ccnc(C(C)(C)C#N)c4)cnc3N)o2)cc1` [Compound I-4, 2-[4-[5-amino-6-[5-[4-(methylaminomethyl)phenyl]-1,3,4-oxadiazol-2-yl]pyrazin-2-yl]-2-pyridyl]-2-methyl-propanenitrile]: the Ki is less than 1 nM.
On the same count and under the same terms, then `CN(C)CCOc1ccc(-c2nnc(-c3nc(-c4ccnc(C(C)(C)C#N)c4)cnc3N)o2)cc1` [Compound I-56], with less than 1 nM; and `CC(C)(C#N)c1cc(-c2cnc(N)c(-c3cc(-c4ccc(CNC5COC5)cc4)no3)n2)ccn1` [Compound I-18, 2-[4-[5-amino-6-[3-[4-[(oxetan-3-ylamino)methyl]phenyl]isoxazol-5-yl]pyrazin-2-yl]-2-pyridyl]-2-methyl-propanenitrile], with less than 1 nM; and `COc1ccccc1-c1nnc(-c2nc(-c3ccnc(C4(C#N)CCNCC4)c3)cnc2N)o1` [Compound I-133], with less than 1 nM.
Still for that read-out and setting: then `CC(C)(C#N)c1cc(-c2cnc(N)c(-c3cc(-c4ccc(CN[C@@H]5CCOC5)cc4)no3)n2)ccn1` [Compound I-17, 2-[4-[5-amino-6-[3-[4-[[[(3R)-tetrahydrofuran-3-yl]amino]methyl]phenyl]isoxazol-5-yl]pyrazin-2-yl]-2-pyridyl]-2-methyl-propanenitrile], with less than 1 nM; and `CC(C)(C#N)c1cc(-c2cnc(N)c(-c3cc(-c4ccc(C5CNCCN5)cc4)no3)n2)ccn1` (centres unmarked) [Compound I-41, 2-[4-[5-amino-6-[3-(4-piperazin-2-ylphenyl)isoxazol-5-yl]pyrazin-2-yl]-2-pyridyl]-2-methyl-propanenitrile], with less than 1 nM.
On to `Nc1ncc(-c2ccnc(CO)c2)nc1-c1cc(-c2ccc(CNC3CCOCC3)cc2)no1` [Compound I-135], for which the Ki is less than 1 nM.
Still for that read-out and setting: then `CC(C)(C#N)c1cc(-c2cnc(N)c(-c3nnc(-c4ccc(CCN)cc4)o3)n2)ccn1` [Compound I-57], with less than 1 nM.
Same read-out and setting: as for `CC(C)(C#N)c1cc(-c2cnc(N)c(-c3nnc(-c4ccc(CNC5CCOCC5)cc4F)o3)n2)ccn1` [Compound I-124], the figure is less than 1 nM; as for `N#CC1(c2cc(-c3cnc(N)c(-c4cc(-c5ccccc5)no4)n3)ccn2)CCOCC1` [Compound I-7, 4-[4-[5-amino-6-(3-phenylisoxazol-5-yl)pyrazin-2-yl]-2-pyridyl]tetrahydropyran-4-carbonitrile], less than 1 nM.
As to `N#CC1(c2cc(-c3cnc(N)c(-c4cc(-c5ccccc5)no4)n3)ccn2)CCNCC1` [Compound I-6, 4-[4-[5-amino-6-(3-phenylisoxazol-5-yl)pyrazin-2-yl]-2-pyridyl]piperidine-4-carbonitrile], the “ATR Ki” value is reported as “+++ (Compounds with a Ki value >5 nM but ≦1 nM are marked with “+++.”)”.
Still for that read-out and setting: then `CC(C)(C#N)c1cc(-c2cnc(N)c(-c3nnc(-c4ccc(O[C@H]5CCNC5)cc4)o3)n2)ccn1` [Compound I-106], with “+++ (Compounds with a Ki value >5 nM but ≦1 nM are marked with “+++.”)”.
Turning to `CC(C)(C#N)c1cc(-c2cnc(N)c(-c3nnc(-c4ccc(C5=CCNCC5)cc4)o3)n2)ccn1` [Compound I-128], the Ki was less than 1 nM.
Same read-out and setting: then `CC(C)(C#N)c1cc(-c2cnc(N)c(-c3nnc(-c4ccc(C5CCCN5)cc4)o3)n2)ccn1` (centres unmarked) [Compound I-79], with less than 1 nM; and `CC(C)(C#N)c1cc(-c2cnc(N)c(-c3nnc(-c4ccc(CNCC5COC5)cc4)o3)n2)ccn1` [Compound I-105], with less than 1 nM.
With `CC(C)(C#N)c1cc(-c2cnc(N)c(-c3nnc(-c4cccc(NC5CNC5)c4)o3)n2)ccn1` [Compound I-84], the “ATR Ki” value is listed as “+++ (Compounds with a Ki value >5 nM but ≦1 nM are marked with “+++.”)”.
Take `N#CC1(c2cc(-c3cnc(N)c(-c4cc(-c5ccc(CN[C@H]6CCOC6)cc5)no4)n3)ccn2)CC1` [Compound I-34, 1-[4-[5-amino-6-[3-[4-[[[(3S)-tetrahydrofuran-3-yl]amino]methyl]phenyl]isoxazol-5-yl]pyrazin-2-yl]-2-pyridyl]cyclopropanecarbonitrile]: the Ki is less than 1 nM.
With `CNCc1ccc(-c2cc(-c3nc(-c4ccnc(C5(C#N)CCOCC5)c4)cnc3N)on2)cc1` [Compound I-9, 4-[4-[5-amino-6-[3-[4-(methylaminomethyl)phenyl]isoxazol-5-yl]pyrazin-2-yl]-2-pyridyl]tetrahydropyran-4-carbonitrile], the Ki was less than 1 nM.
In the case of `CC(C)(C#N)c1cc(-c2cnc(N)c(-c3nnc(-c4ccc5c(c4)CCNC5)o3)n2)ccn1` [Compound I-52, 2-[4-[5-amino-6-[5-(1,2,3,4-tetrahydroisoquinolin-6-yl)-1,3,4-oxadiazol-2-yl]pyrazin-2-yl]-2-pyridyl]-2-methyl-propanenitrile], the “ATR Ki” value is “+++ (Compounds with a Ki value >5 nM but ≦1 nM are marked with “+++.”)”.
